Experimental findings from ChEMBL document CHEMBL5532679, “Discovery and Characterization of RGH-122, a Potent, Selective, and Orally Bioavailable V1a Receptor Antagonist” (J Med Chem, 2024) are described below.

SMILES strings stand for the structures.

System in the first data set: not listed separately
Nature of the data set: in vitro. The settings on record: Wistar, rat, microsomes.
With `N[C@H]1Cc2cc(Cl)ccc2-n2c(nnc2[C@H]2CC[C@H](Oc3ccccn3)CC2)C1`, the microsomal CLint (as a rule, a measure of how fast metabolising enzymes remove a compound, apart from limits set by blood flow) at 1 µM was found to be 36 µL/min/mg.

As for `FC1(F)CCC(NC2Cc3cc(Cl)ccc3-n3c(nnc3[C@H]3CC[C@H](Oc4ccccn4)CC3)C2)CC1` (stereo partly drawn), the microsomal CLint at 1 µM was 26 µL/min/mg. The microsomal CLint at 1 µM values of the last two compounds are within 1.5-fold of each other.

The compound `CCN[C@@H]1Cc2cc(Cl)ccc2-n2c(nnc2[C@H]2CC[C@H](Oc3ccccn3)CC2)C1` registered a microsomal CLint at 1 µM of 15 µL/min/mg.

For `NC1Cc2cc(Cl)ccc2-n2c(nnc2[C@H]2CC[C@H](Oc3ccccn3)CC2)C1` (mixture of isomers), the microsomal CLint at 1 µM is 11 µL/min/mg.

In turn, `O=C([C@H]1CC[C@H](c2nnc3n2-c2ccc(Cl)cc2CC2(C3)OCCO2)CC1)N1CCOCC1` had a microsomal CLint at 1 µM of 3 µL/min/mg.

The compound `CN(C)C1Cc2cc(Cl)ccc2-n2c(nnc2[C@H]2CC[C@H](Oc3ccccn3)CC2)C1` (stereo partly drawn) registered a microsomal CLint at 1 µM of 36 µL/min/mg. Against the preceding compound, the microsomal CLint at 1 µM is about 12-fold higher.

In the next data set the target is Voltage-gated inwardly rectifying potassium channel KCNH2 (Homo sapiens, UniProt Q12809).
Sequence of Voltage-gated inwardly rectifying potassium channel KCNH2 (Q12809 whole entry): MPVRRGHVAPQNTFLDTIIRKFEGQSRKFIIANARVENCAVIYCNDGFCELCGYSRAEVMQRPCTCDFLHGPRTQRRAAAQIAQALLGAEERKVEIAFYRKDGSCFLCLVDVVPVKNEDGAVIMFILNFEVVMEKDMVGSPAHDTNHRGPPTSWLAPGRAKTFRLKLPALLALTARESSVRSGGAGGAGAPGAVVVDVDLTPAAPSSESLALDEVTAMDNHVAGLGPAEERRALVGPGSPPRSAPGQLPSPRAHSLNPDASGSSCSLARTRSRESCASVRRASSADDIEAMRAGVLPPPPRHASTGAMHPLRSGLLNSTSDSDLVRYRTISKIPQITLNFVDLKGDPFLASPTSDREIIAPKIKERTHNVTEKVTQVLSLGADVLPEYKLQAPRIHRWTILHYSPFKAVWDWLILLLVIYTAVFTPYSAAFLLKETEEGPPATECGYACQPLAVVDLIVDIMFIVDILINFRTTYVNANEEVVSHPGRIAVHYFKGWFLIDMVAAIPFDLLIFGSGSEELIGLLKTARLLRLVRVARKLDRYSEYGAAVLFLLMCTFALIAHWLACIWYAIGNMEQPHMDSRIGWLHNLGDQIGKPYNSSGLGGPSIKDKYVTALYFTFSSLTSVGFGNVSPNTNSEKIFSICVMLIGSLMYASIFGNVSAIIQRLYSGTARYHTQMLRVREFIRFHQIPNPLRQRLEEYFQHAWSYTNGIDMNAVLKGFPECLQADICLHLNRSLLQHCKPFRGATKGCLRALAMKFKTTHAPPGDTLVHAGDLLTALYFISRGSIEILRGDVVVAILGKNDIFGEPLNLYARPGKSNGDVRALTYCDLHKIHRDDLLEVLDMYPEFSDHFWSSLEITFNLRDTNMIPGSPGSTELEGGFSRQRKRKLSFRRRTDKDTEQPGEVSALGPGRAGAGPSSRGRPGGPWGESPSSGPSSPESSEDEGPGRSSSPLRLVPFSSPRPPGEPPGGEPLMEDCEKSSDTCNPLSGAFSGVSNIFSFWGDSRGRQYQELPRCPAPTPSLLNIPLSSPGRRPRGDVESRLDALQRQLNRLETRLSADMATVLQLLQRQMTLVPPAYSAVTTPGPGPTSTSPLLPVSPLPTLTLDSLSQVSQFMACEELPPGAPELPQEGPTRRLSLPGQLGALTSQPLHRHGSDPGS
Assay: not given
Conditions: not given
Regarding `OC[C@@H]1Cc2cc(Cl)ccc2-n2c(nnc2[C@H]2CC[C@H](Oc3ccccn3)CC2)C1`, the IC50 (usually the concentration that gives 50% inhibition) was 19 µM.

As to `CC(C)NC1Cc2cc(Cl)ccc2-n2c(nnc2[C@H]2CC[C@H](Oc3ccccn3)CC2)C1` (mixture of isomers), half-maximal inhibition (IC50) required 3.7 µM.

The compound `CC(C)N[C@@H]1Cc2cc(Cl)ccc2-n2c(nnc2[C@H]2CC[C@H](Oc3ccccn3)CC2)C1` returned an IC50 of 4 µM.

Consider `OC[C@H]1Cc2cc(Cl)ccc2-n2c(nnc2[C@H]2CC[C@H](Oc3ccccn3)CC2)C1`, for which it took 23 µM to reach half-maximal inhibition (IC50).

The compound `FC[C@@H]1Cc2cc(Cl)ccc2-n2c(nnc2[C@H]2CC[C@H](Oc3ccccn3)CC2)C1` returned an IC50 of 12 µM. Compared with the last compound, the IC50 is about 1.9-fold lower.

In turn, `OCC1Cc2cc(Cl)ccc2-n2c(nnc2[C@H]2CC[C@H](Oc3ccccn3)CC2)C1` (stereo partly drawn) had an IC50 of 21.4 µM.

As for `CC(C)N[C@H]1Cc2cc(Cl)ccc2-n2c(nnc2[C@H]2CC[C@H](Oc3ccccn3)CC2)C1`, the IC50 came out at 3.8 µM.

In the case of `CCN[C@@H]1Cc2cc(Cl)ccc2-n2c(nnc2[C@H]2CC[C@H](Oc3ccccn3)CC2)C1`, half-maximal inhibition (IC50) required 3.5 µM. This IC50 and that of the compound before are within 1.5-fold of each other.

For the compound `FC[C@H]1Cc2cc(Cl)ccc2-n2c(nnc2[C@H]2CC[C@H](Oc3ccccn3)CC2)C1`, the IC50 was found to be 13 µM.

System in another data set: not listed separately
Nature of the data set: Apparent permeability of compound across apical to basal side in vinblastine treated human Caco-2 cells at 1 to 10 uM incubated for 15 to 60 mins by HPLC analysis.
Conditions: not given
Background: Caco-2 monolayers are a common model of the intestinal barrier.
On to `N[C@H]1Cc2cc(Cl)ccc2-n2c(nnc2[C@H]2CC[C@H](Oc3ccccn3)CC2)C1`, for which the Papp A→B (as a rule, the apparent permeability from the apical to the basolateral side of a cell layer) at 10 µM worked out at 2.6 ×10⁻⁶ cm/s.

As to `CCN[C@@H]1Cc2cc(Cl)ccc2-n2c(nnc2[C@H]2CC[C@H](Oc3ccccn3)CC2)C1`, the Papp A→B at 10 µM came out at 24 ×10⁻⁶ cm/s.

Regarding `NC1Cc2cc(Cl)ccc2-n2c(nnc2[C@H]2CC[C@H](Oc3ccccn3)CC2)C1` (mixture of isomers), the Papp A→B at 10 µM stood at 3 ×10⁻⁶ cm/s.

Regarding `O=C([C@H]1CC[C@H](c2nnc3n2-c2ccc(Cl)cc2CC2(C3)OCCO2)CC1)N1CCOCC1`, the Papp A→B at 10 µM is 1.3 ×10⁻⁶ cm/s.

On to `CN(C)C1Cc2cc(Cl)ccc2-n2c(nnc2[C@H]2CC[C@H](Oc3ccccn3)CC2)C1` (stereo partly drawn), for which the Papp A→B at 10 µM was 23 ×10⁻⁶ cm/s.

System in the next data set: not listed separately
Briefly: Efflux ratio of apparent permeability across basolateral to apical side over apical to basolateral side in vinblastine treated human Caco-2 cells at 1 to 10 uM incubated for 15 to 60 hrs by HPLC analysis.
Conditions: not given
As for `N[C@H]1Cc2cc(Cl)ccc2-n2c(nnc2[C@H]2CC[C@H](Oc3ccccn3)CC2)C1`, the efflux ratio (usually the permeability from basolateral to apical divided by that in the opposite direction, in the common usage) at 10 µM was found to be 44.

For `CCN[C@@H]1Cc2cc(Cl)ccc2-n2c(nnc2[C@H]2CC[C@H](Oc3ccccn3)CC2)C1`, the efflux ratio at 10 µM was 1.4.

As to `NC1Cc2cc(Cl)ccc2-n2c(nnc2[C@H]2CC[C@H](Oc3ccccn3)CC2)C1` (mixture of isomers), the efflux ratio at 10 µM was determined as 29.

For `O=C([C@H]1CC[C@H](c2nnc3n2-c2ccc(Cl)cc2CC2(C3)OCCO2)CC1)N1CCOCC1`, the efflux ratio at 10 µM was found to be 29.

`CN(C)C1Cc2cc(Cl)ccc2-n2c(nnc2[C@H]2CC[C@H](Oc3ccccn3)CC2)C1` (stereo partly drawn): the efflux ratio at 10 µM is 1.3.

System in the next data set: not listed separately
Nature of the data set: in vitro. The settings on record: human, liver microsomes. On the technique in general: Liver microsomes are a subcellular fraction often used to study metabolism.
Take `Clc1ccc2c(c1)CCCc1nnc([C@H]3CC[C@H](Oc4ccccn4)CC3)n1-2`: the microsomal CLint at 1 µM stood at 29 µL/min/mg.

The same data set, now with this note: human, microsomes.
The compound `N[C@H]1Cc2cc(Cl)ccc2-n2c(nnc2[C@H]2CC[C@H](Oc3ccccn3)CC2)C1` displayed a microsomal CLint at 1 µM of 4 µL/min/mg.

`FC1(F)CCC(NC2Cc3cc(Cl)ccc3-n3c(nnc3[C@H]3CC[C@H](Oc4ccccn4)CC3)C2)CC1` (stereo partly drawn) returned a microsomal CLint at 1 µM of 26 µL/min/mg. Compared with the last compound, the microsomal CLint at 1 µM is about 6.5-fold higher.

For the compound `CCN[C@@H]1Cc2cc(Cl)ccc2-n2c(nnc2[C@H]2CC[C@H](Oc3ccccn3)CC2)C1`, the microsomal CLint at 1 µM is 21 µL/min/mg.

On to `NC1Cc2cc(Cl)ccc2-n2c(nnc2[C@H]2CC[C@H](Oc3ccccn3)CC2)C1` (mixture of isomers), for which the microsomal CLint at 1 µM was 2 µL/min/mg.

`CN(C)C1Cc2cc(Cl)ccc2-n2c(nnc2[C@H]2CC[C@H](Oc3ccccn3)CC2)C1` (stereo partly drawn) came in with a microsomal CLint at 1 µM of 34 µL/min/mg.

System in the next data set: not listed separately
Nature of the data set: animal or person. The settings on record: Mus musculus, NMRI, po, read-out: INH.
Regarding `N#Cc1ccc2c(c1)CC1(Cc3nnc([C@H]4CC[C@H](Oc5ccccn5)CC4)n3-2)OCCO1`, the inhibition in vivo at 10 mg/kg was determined as 69%.

Take `c1ccc(O[C@H]2CC[C@H](c3nnc4n3-c3ccccc3CC3(C4)OCCO3)CC2)nc1`: the inhibition in vivo at 10 mg/kg was 49%.

Consider `FC(F)(F)c1ccc2c(c1)CC1(Cc3nnc([C@H]4CC[C@H](Oc5ccccn5)CC4)n3-2)OCCO1`, for which the inhibition in vivo at 10 mg/kg was found to be 76%.

On to `Brc1ccc2c(c1)CC1(Cc3nnc([C@H]4CC[C@H](Oc5ccccn5)CC4)n3-2)OCCO1`, for which the inhibition in vivo at 10 mg/kg is 99%.

As to `Clc1ccc2c(c1)CCCc1nnc([C@H]3CC[C@H](Oc4ccccn4)CC3)n1-2`, the inhibition in vivo at 10 mg/kg came out at 42%.

Take `Fc1ccc2c(c1)CC1(Cc3nnc([C@H]4CC[C@H](Oc5ccccn5)CC4)n3-2)OCCO1`: the inhibition in vivo at 10 mg/kg amounted to 49%.

System in a further data set: not listed separately
Nature of the data set: in vitro. The conditions noted are these: NMRI, mouse, microsomes.
`N[C@H]1Cc2cc(Cl)ccc2-n2c(nnc2[C@H]2CC[C@H](Oc3ccccn3)CC2)C1` gave a microsomal CLint at 1 µM of 11 µL/min/mg.

For the compound `FC1(F)CCC(NC2Cc3cc(Cl)ccc3-n3c(nnc3[C@H]3CC[C@H](Oc4ccccn4)CC3)C2)CC1` (stereo partly drawn), the intrinsic clearance (microsomal CLint) at 1 µM was 37 µL/min/mg.

`CCN[C@@H]1Cc2cc(Cl)ccc2-n2c(nnc2[C@H]2CC[C@H](Oc3ccccn3)CC2)C1` had a microsomal CLint at 1 µM of 16 µL/min/mg.

Compound `NC1Cc2cc(Cl)ccc2-n2c(nnc2[C@H]2CC[C@H](Oc3ccccn3)CC2)C1` (mixture of isomers) gave a microsomal CLint at 1 µM of 14 µL/min/mg.

`O=C([C@H]1CC[C@H](c2nnc3n2-c2ccc(Cl)cc2CC2(C3)OCCO2)CC1)N1CCOCC1` returned an intrinsic metabolic clearance (microsomal CLint) at 1 µM of 3 µL/min/mg.

With `CN(C)C1Cc2cc(Cl)ccc2-n2c(nnc2[C@H]2CC[C@H](Oc3ccccn3)CC2)C1` (stereo partly drawn), the microsomal CLint at 1 µM is 37 µL/min/mg.
